Source: ChEMBL document CHEMBL1681710, “Pyridyl amides as potent inhibitors of T-type calcium channels” (Bioorg Med Chem Lett, 2011)
pIC50, pKi: −log10 of the molar value. The source made the active and inactive calls. No cut-off for these calls is given here.

Assays:
[1] = biological target: T1, Voltage-dependent T-type calcium channel subunit alpha-1I (Homo sapiens, UniProt Q9P0X4); test: Antagonist activity at Cav3.3 alpha1i expressed in HEK293 cells by depolarized FLIPR assay; format: functional, cell-based
[2] = biological target: T1, Voltage-dependent T-type calcium channel subunit alpha-1I; test: Binding affinity to Cav3.3 alpha1i
[3] = biological target: Voltage-gated inwardly rectifying potassium channel KCNH2 (Homo sapiens, UniProt Q12809); test: Inhibition of human ERG
[4] = Binding affinity to L-type Ca2+ channel
Rattus norvegicus [5] = test: Antiepileptic activity in WAG/Rij rat seizure model assessed as reduction in total seizure time measured for 4 hrs at 10 mg/kg, po by radiotelemetric physiologic monitor; format: functional
[6] = biological target: T1, Voltage-dependent T-type calcium channel subunit alpha-1I; test: Antagonist activity at Cav3.3 alpha1i expressed in HEK293 cells at -100 mV by standard voltage-clamp electrophysiology assay; format: functional, cell-based
[7] = Plasma clearance in dog at 0.5 mg/kg, iv; format: ADME, organism-based, Canis lupus familiaris; set-up: dose 0.5 mg/kg, route intravenous
[8] = Half life in dog at 0.5 mg/kg, iv; format: ADME, organism-based, Canis lupus familiaris; set-up: dose 0.5 mg/kg, route intravenous; conditions: in vivo
[9] = Volume of distribution at steady state in dog at 0.5 mg/kg, iv; format: ADME, organism-based, Canis lupus familiaris; set-up: dose 0.5 mg/kg, route intravenous; conditions: in vivo
[10] = Bioavailability in dog at 0.5 mg/kg, iv; format: ADME, organism-based, Canis lupus familiaris; conditions: in vivo
[11] = Plasma clearance in rhesus monkey at 0.5 mg/kg, iv; format: ADME, organism-based, Macaca mulatta; set-up: dose 0.5 mg/kg, route intravenous
[12] = Half life in rhesus monkey at 0.5 mg/kg, iv; format: ADME, organism-based, Macaca mulatta; set-up: dose 0.5 mg/kg, route intravenous; conditions: in vivo
[13] = Volume of distribution at steady state in rhesus monkey at 0.5 mg/kg, iv; format: ADME, organism-based, Macaca mulatta; set-up: dose 0.5 mg/kg, route intravenous; conditions: in vivo
[14] = Bioavailability in rhesus monkey at 0.5 mg/kg, iv; format: ADME, organism-based, Macaca mulatta; conditions: in vivo
Rattus norvegicus [15] = test: Effect on sleep architecture in rat assessed as reduction in active awake at 3 mg/kg, po up to 4 hrs; format: functional, organism-based; set-up: dose 3 mg/kg
Rattus norvegicus [16] = test: Effect on sleep architecture in po dosed rat assessed as reduction in active awake up to 4 hrs; format: functional, organism-based
Rattus norvegicus [17] = test: Effect on sleep architecture in rat assessed as reduction in REM sleep at 3 mg/kg, po up to 4 hrs; format: functional, organism-based; set-up: dose 3 mg/kg
Rattus norvegicus [18] = test: Effect on sleep architecture in rat assessed as increase in delta sleep at 3 mg/kg, po up to 4 hrs; format: functional, organism-based; set-up: dose 3 mg/kg
[19] = Cmax in non-implanted rat plasma after 1.2 hrs; format: ADME, organism-based
[20] = biological target: Voltage-dependent T-type calcium channel subunit alpha-1G (Homo sapiens, UniProt O43497); test: Inhibition of Cav3.1 alpha1G at -80 mV holding potential by tandard voltage-clamp electrophysiology assay
[21] = biological target: Voltage-dependent T-type calcium channel subunit alpha-1H (Homo sapiens, UniProt O95180); test: Inhibition of Cav3.2 alpha1H at -80 mV holding potential by tandard voltage-clamp electrophysiology assay
[22] = biological target: Voltage-dependent L-type calcium channel subunit alpha-1C (Homo sapiens, UniProt Q13936); test: Inhibition of L-type Cav1.2 at -80 mV holding potential by tandard voltage-clamp electrophysiology assay
[23] = biological target: Voltage-dependent P/Q-type calcium channel subunit alpha-1A (Homo sapiens, UniProt O00555); test: Inhibition of P/Q-type Cav2.1 at -80 mV holding potential by tandard voltage-clamp electrophysiology assay
[24] = biological target: Voltage-dependent N-type calcium channel subunit alpha-1B (Homo sapiens, UniProt Q00975); test: Inhibition of N-type Cav2.2 at -80 mV holding potential by tandard voltage-clamp electrophysiology assay
[25] = biological target: Voltage-dependent R-type calcium channel subunit alpha-1E (Homo sapiens, UniProt Q15878); test: Inhibition of R-type Cav2.3 at -80 mV holding potential by tandard voltage-clamp electrophysiology assay
Mus musculus = species: Mus musculus; test: Inhibition of high-fat diet-induced weight gain in mouse; format: functional, organism-based
[26] = Half life in rat at 2 mg/kg, iv; conditions: in vivo
[27] = Plasma clearance in rat at 2 mg/kg, iv
[28] = Bioavailability in rat at 2 mg/kg, iv and 10 mg/kg, po; conditions: in vivo
[29] = Volume of distribution at steady state in rat at 2 mg/kg, iv; conditions: in vivo

T1 sequence (Q9P0X4 whole entry): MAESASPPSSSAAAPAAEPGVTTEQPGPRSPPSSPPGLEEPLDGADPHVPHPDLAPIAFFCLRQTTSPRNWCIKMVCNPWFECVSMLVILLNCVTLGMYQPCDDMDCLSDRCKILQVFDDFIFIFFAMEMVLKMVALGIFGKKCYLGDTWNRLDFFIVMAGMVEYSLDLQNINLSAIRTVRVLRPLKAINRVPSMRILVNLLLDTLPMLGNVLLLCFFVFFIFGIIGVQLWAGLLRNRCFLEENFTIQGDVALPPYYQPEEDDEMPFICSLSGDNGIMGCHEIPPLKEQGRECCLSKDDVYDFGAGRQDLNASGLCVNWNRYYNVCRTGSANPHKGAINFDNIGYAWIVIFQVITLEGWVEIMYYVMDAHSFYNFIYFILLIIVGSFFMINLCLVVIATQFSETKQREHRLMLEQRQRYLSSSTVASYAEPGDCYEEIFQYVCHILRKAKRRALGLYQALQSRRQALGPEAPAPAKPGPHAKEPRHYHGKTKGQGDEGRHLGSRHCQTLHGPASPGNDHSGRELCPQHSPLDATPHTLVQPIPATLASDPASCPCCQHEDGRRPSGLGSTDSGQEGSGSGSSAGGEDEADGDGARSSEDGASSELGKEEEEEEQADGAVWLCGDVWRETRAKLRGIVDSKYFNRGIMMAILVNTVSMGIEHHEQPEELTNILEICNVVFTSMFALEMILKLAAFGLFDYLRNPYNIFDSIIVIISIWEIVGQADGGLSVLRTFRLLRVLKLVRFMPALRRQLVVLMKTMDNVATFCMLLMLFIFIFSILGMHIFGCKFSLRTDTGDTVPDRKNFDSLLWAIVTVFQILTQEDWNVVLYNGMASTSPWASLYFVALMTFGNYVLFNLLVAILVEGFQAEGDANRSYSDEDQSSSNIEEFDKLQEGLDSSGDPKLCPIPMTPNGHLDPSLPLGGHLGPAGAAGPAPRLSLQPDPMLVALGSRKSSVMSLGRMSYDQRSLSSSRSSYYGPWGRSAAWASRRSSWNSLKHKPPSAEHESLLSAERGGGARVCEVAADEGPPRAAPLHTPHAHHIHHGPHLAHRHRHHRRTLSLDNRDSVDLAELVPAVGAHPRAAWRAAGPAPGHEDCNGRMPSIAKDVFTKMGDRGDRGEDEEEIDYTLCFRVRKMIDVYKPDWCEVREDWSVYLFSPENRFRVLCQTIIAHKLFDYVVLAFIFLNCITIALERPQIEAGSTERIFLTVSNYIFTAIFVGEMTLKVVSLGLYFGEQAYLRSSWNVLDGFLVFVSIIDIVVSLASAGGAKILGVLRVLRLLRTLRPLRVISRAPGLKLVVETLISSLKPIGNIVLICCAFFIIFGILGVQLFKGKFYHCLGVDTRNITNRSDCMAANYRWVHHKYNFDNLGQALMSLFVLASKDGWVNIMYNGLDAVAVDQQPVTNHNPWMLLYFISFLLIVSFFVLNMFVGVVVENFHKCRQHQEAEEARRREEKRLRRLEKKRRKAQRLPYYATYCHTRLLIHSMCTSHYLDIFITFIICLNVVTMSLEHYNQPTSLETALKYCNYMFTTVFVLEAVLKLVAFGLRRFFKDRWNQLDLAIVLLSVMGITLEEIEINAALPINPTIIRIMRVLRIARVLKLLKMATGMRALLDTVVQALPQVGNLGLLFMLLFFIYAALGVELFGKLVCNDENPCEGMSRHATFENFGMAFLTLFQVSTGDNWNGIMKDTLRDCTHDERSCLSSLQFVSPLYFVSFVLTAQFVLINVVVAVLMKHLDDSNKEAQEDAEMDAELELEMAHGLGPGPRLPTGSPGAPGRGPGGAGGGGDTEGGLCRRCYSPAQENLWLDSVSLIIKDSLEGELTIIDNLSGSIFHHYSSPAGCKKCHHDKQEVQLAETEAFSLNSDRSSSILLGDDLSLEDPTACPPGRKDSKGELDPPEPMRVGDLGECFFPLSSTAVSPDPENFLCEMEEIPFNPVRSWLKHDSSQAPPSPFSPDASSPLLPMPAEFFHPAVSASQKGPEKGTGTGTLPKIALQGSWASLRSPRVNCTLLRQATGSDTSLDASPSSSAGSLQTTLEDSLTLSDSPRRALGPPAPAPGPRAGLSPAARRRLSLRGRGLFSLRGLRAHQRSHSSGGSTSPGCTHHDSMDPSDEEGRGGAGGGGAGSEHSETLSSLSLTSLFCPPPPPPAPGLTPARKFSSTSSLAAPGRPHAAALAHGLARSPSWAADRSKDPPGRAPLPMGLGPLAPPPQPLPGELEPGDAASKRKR
Voltage-gated inwardly rectifying potassium channel KCNH2, sequence (Q12809 whole entry): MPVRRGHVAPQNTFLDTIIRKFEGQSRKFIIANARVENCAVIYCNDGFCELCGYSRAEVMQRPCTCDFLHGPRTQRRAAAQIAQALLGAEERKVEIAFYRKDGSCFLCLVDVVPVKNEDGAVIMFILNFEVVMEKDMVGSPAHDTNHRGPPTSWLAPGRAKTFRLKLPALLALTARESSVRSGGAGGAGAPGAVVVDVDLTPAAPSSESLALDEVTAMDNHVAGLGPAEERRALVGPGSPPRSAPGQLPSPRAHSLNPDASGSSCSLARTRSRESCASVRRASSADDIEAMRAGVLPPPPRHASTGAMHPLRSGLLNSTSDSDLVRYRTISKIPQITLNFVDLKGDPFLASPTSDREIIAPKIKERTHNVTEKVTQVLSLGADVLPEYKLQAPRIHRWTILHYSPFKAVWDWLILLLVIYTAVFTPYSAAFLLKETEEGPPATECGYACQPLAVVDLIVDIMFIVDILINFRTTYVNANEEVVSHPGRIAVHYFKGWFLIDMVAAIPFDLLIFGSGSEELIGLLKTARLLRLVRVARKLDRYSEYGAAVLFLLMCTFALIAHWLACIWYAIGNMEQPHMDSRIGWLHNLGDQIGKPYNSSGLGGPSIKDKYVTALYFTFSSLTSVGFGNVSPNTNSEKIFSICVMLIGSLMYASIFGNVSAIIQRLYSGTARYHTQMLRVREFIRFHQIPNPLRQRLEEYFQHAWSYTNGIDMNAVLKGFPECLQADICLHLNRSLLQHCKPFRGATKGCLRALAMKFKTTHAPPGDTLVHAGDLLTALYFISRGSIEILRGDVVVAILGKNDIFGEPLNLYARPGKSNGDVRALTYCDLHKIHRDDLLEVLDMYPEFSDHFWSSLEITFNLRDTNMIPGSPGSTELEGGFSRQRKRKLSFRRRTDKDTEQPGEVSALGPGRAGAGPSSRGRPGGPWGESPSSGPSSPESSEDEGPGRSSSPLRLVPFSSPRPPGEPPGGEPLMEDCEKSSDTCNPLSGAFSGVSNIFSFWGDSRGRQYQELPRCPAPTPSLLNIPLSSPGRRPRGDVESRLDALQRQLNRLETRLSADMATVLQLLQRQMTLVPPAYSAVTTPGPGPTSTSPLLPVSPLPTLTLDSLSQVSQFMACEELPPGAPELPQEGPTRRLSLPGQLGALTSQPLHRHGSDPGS

With `COc1ccc([C@@H](C)NC(=O)Cc2ccccc2Cl)nc1` the IP [1] was over 5000 nM.
With `COc1cccc([C@@H](C)NC(=O)Cc2ccc(C(C)(C)C)cc2)c1` the IP [1] was 146 nM.
For `COc1ccc([C@@H](C)NC(=O)Cc2ccc(C(C)(C)C)cc2)cc1`, the IP [1] was 146 nM.
For `COc1ccc([C@@H](C)NC(=O)Cc2ccc(Oc3ccccc3)cc2)nc1`, the IP [1] was 439 nM.
In the case of `COc1ccc([C@@H](C)NC(=O)Cc2ccc(C(C)(C)C)cc2)nc1`, the pKi [2] was 8.30, the IP [1] was 22 nM and the pIC50 [3] was under 5.00. For the same molecule, the pIC50 [4] was under 5.00 and the inhibition in vivo at 10 mg/kg (Rattus norvegicus [5]) was 49%.
Molecule `C[C@@H](NC(=O)Cc1ccc(C2CC2)cc1)c1ccc(O)cn1` has an IP [1] of 1720 nM.
Work on `CC(C)c1ccc(CC(=O)N[C@H](C)c2ccc(OCC(F)(F)F)cn2)cc1` yielded an IP [1] of 5 nM.
For `COc1ccc([C@@H](C)NC(=O)Cc2ccc(C#N)cc2)nc1`, the IP [1] was over 5000 nM.
With `COC(=O)c1ccc(CC(=O)N[C@H](C)c2ccc(OC)cn2)cc1` the IP [1] was 1450 nM.
`CC(NC(=O)Cc1ccc(C(C)(C)C)cc1)c1ccccc1Cl` (racemic) gave an IP [1] of 332 nM.
Work on `C[C@H](c1ccccc1)N(C)C(=O)Cc1ccc(C(C)(C)C)cc1` yielded an IP [1] of over 10000 nM.
Molecule `COc1ccc([C@@H](C)NC(=O)Cc2ccccc2)nc1` has an IP [1] of over 10000 nM.
For `COc1ccc([C@@H](C)NC(=O)Cc2cccc(Cl)c2)nc1`, the IP [1] was 2780 nM.
`COc1ccc([C@@H](C)NC(=O)Cc2ccc(S(C)(=O)=O)cc2)nc1` showed an IP [1] of over 10000 nM.
`COc1ccc([C@@H](C)NC(=O)Cc2ccc(C(C)C)cc2)nc1` showed an IP [1] of 45 nM.
In the case of `C[C@@H](NC(=O)Cc1ccc(C2CC2)cc1)c1ccc(OCc2ccccc2)cn1`, the IP [1] was 21 nM.
In the case of `CC(NC(=O)Cc1ccc(C(C)(C)C)cc1)c1ccccn1` (racemic), the IP [1] was 427 nM.
`COc1ccc([C@@H](C)NC(=O)Cc2ccc(Cl)cc2)nc1` showed an IP [1] of 1330 nM.
Molecule `COc1ccc([C@@H](C)NC(=O)Cc2ccc(C(C)(C)O)cc2)nc1` has an IP [1] of 1130 nM.
`C[C@@H](NC(=O)Cc1ccc(C(C)(C)C)cc1)c1ccc(Cl)cn1` showed an IP [1] of 30 nM.
Work on `C[C@@H](NC(=O)Cc1ccc(C(C)(C)C)cc1)c1ccc(Cl)cc1` yielded an IP [1] of 123 nM.
In the case of `CCCOc1ccc([C@@H](C)NC(=O)Cc2ccc(C(C)C)cc2)nc1`, the IP [1] was 10 nM.
`COc1ccc(CC(=O)N[C@H](C)c2ccc(OC)cn2)cc1` gave an IP [1] of 1740 nM.
Work on `CC(C)c1ccc(CC(=O)N[C@H](C)c2ccc(O)cn2)cc1` yielded an IP [1] of 920 nM.
For `C[C@H](NC(=O)Cc1ccc(C(C)(C)C)cc1)c1ccccc1`, the IP [1] was 4680 nM.
Molecule `CC(C)c1ccc(CC(=O)N[C@H](C)c2ccc(OCc3ccccc3)cn2)cc1` has an IP [1] of 16 nM.
`COc1ccc([C@@H](C)NC(=O)Cc2ccc(Cl)c(Cl)c2)nc1` gave an IP [1] of 252 nM.
In the case of `C[C@@H](NC(=O)Cc1ccc(C2CC2)cc1)c1ccc(OCC(F)(F)F)cn1`, the pKi [2] was 8.92, the IP [1] was 6 nM and the pIC50 [3] was under 5.00. For the same molecule, the pIC50 [4] was under 5.00, the inhibition in vivo at 10 mg/kg (Rattus norvegicus [5]) was 87% and the pIC50 [6] was 5.43. For the same molecule, the clearance [7] was 0.9 mL/min/kg, the half-life [8] was 11 h and the Vd [9] was 0.7 L/kg. The bioavailability [10] was 43%, the clearance [11] was 17 mL/min/kg and the half-life [12] was 0.9 h. The Vd [13] was 0.9 L/kg, the bioavailability [14] was 7% and the Activity (Rattus norvegicus [15]) was “Active”. The Activity (Rattus norvegicus [16]) was “Dose-dependent effect”, the Activity (Rattus norvegicus [17]) was “Active” and the Activity (Rattus norvegicus [18]) was “Active”. For the same molecule, the Cmax [19] was 4 µM, the pIC50 [20] was 7.05 and the pIC50 [21] was 7.04. The pIC50 [22] was under 4.52, the pIC50 [23] was under 4.52 and the pIC50 [24] was under 4.52. The pIC50 [25] was under 4.52, the inhibition (Mus musculus) was “Active” and the half-life [26] was 1.5 h. It also gave a clearance [27] of 6 mL/min/kg, a bioavailability [28] of 68% and a Vd [29] of 0.8 L/kg.
With `C[C@@H](NC(=O)Cc1ccc(C(C)(C)C)cc1)c1ccccc1` the IP [1] was 235 nM.
With `COc1ccc([C@@H](C)NC(=O)Cc2ccc(C3CC3)cc2)nc1` the IP [1] was 70 nM.
With `CC(NC(=O)Cc1ccc(C(C)(C)C)cc1)c1cccnc1` (racemic) the IP [1] was 5380 nM.
`CC(C)(C)c1ccc(CC(=O)NC(C)(C)c2ccccc2)cc1` showed an IP [1] of 5480 nM.
In the case of `CCCOc1ccc([C@@H](C)NC(=O)Cc2ccc(C3CC3)cc2)nc1`, the IP [1] was 11 nM.
Work on `CC(NC(=O)Cc1ccc(C(C)(C)C)cc1)c1ccncc1` (racemic) yielded an IP [1] of over 10000 nM.
For `COc1ccc([C@@H](C)NC(=O)Cc2ccc(F)cc2)nc1`, the IP [1] was over 10000 nM.
